Results: US20250144187A1, “COMBINATION OF HYDROLASES AND ANTI-MICROORGANISM DRUGS AND USES THEREOF” (CENTRE FOR EYE AND VISION RESEARCH LIMITED, priority 2023, published 2025)

Key:
MRSA [1] = assay: High-throughput screening of 1953 FDA-approved compounds with human lysozyme; format: cell-based, Staphylococcus aureus; conditions: compound 25 μM + 1 mg/ml lysozyme, 24-hour
Description: 1) High-throughput screening. According to standard screening method [Zhong. […] Commun. 11, 523 (2020)], 1953 FDA-approved compounds from our drugs library at a fixed concentrations of 25 μM were screened against methicillin-resistant Staphylococcus aureus (MRSA) and Staphylococcus epidermis (a coagulase negative Staphylococci, MRSE), in combination with human lysozyme. Specifically, these compounds were added into bacterial suspensions (1×10^5 CFU/ml, in LB medium) in the absence or presence of 1 mg/ml lysozyme. LB medium without bacteria served as background group. Then, the real-time growth curvet of MRSA were monitored per hour and for 24 hours. Absorbance at 600 am (OD600) of bacterial culture at the time point of 24-hour was also measured. The inhibition ratio (%) was calculated as (ODcontrol−ODsample)/(ODcontrol−ODbackground)×100%. […] Herein, the relative and apparent inhibition ratios indicated the combination effect and potential toxicity of compound, respectively. Synergy effect was defined as the relative inhibition ratio of ≥90%. All assays were performed in triplicate.

ARPE-19 cells = format: cell-based; conditions: human, 24 h
Description: 14) Toxicities analysis on lysozyme and cefdinir. Toxicities analysis of lysozyme and cefdinir were performed on ARPE-19 and 293T cells [Guo H et al., ACS Chem Biol 17, 2003-2009 (2022)]. Drugs at different concentrations were added into the plates, in which cells had 80% confluency. Those without any drug's treatment served as control group. Ater 24 hours culture at 37° C., survival cells were counted by using CCK-8 kit, 100% survival ratio (no toxicity) was defined as those had same number of survival cells in control group.

MRSE = assay: High-throughput screening of 4989 compounds with human lysozyme; format: cell-based, Staphylococcus epidermis; conditions: for MRSE Inhibition ratio (%): compound 2.5 μM + 1 mg/ml lysozyme relative to compound only
MRSA [2] = assay: Check board broth micro-dilution assay, tedizolid phosphate with lysozyme; format: cell-based, Staphylococcus aureus; conditions: for FICI: tedizolid phosphate + lysozyme
Description: 2) Check board broth micro-dilution assays. According to standard two-fold dilution method [Sun. H et al., Nat. Commun. 11, 5263 (2020) tedizolid phosphate at different concentrations were added into fresh LB medium (or trypticase soy troth medium with 5% defibrinated horse blood) containing different concentrations of human lysozyme in 96-well plate. Then, 20 μl of 1.0×10^7 CFU/ml logarithmic cultures of MRSA or MRSE were added into each well of the plate and co-incubated overnight. Drug-free LB medium in the absence or presence of bacteria served as background control and growth control group, respectively. […] Thus, there would be a series of FICI values. In most of cases, the lowest one among these values was listed to reflect the best achieving degree of combination therapy. In terms of the lowest FICI, FICI≤0.5, 0.5<FICI<1 or FICI≥1, would indicate the combination has synergy, part synergy or non-synergy effects, respectively.

[3] = test system: alkaline phosphatase extracted from MRSA; assay: Enzyme activity of alkaline phosphatase (in vitro hydrolysis of tedizolid phosphate); format: biochemical, Staphylococcus aureus; conditions: enzyme from MRSA of the combination therapy group, after 1 hour
Description: 14) Enzyme activity of alkaline phosphatase. All enzyme activities of alkaline phosphatase were analyzed according to the modified method as previously described [Zhao, X.-y et al., Nature 46, 86-90 (2009); Zhang, XC e al., Anal. Chem. 92, 5185-5190 (2020); Rosch, J. & Caparon, M. Science 304, 1513-1151 (2004); Wang. W et al., PLoS One 10, e012403512013); Ghosh, S. S et al., Circ. Res. 128, 1646-1659 (2021)]. Briefly, mid-log-phase MRSA or MRSE was treated with lysozyme, tedizolid phosphate or their combination at different concentrations. Those without any treatment served as untreated group. After incubation at 37° C. for 1 hour, all samples were collected, washed by distilled water and re-suspended in distilled water to collect bacterial suspension with an initial density of about 5.0×10^12 CFU/ml according to pre-experiment. Then, sonication lysis for 40 minutes at 4° C. and centrifugation at 18,000 g at 4° C. for 20 minutes were performed to collect these supernatants. Next, 20 μl of each supernatant was incubated with 4 μg of tedizolid phosphate. […] These slides were visualized under fluorescence microscopy and randomly selected bacteria were analyzed at ×1,500 magnification. To quantify the enzyme activity, similar protocol was performed on cell lysis supernatant instead of above-described bacterial suspension. Finally, absorption spectrums (300-800 nm) were collected and analyzed. […]

Structure (SMILES)	Growth inhibition ratio (mean ± SD, %) MRSA (MRSA [1]) [%]	safe concentration without any effect on cell survival ratios (ARPE-19 cells) [µg/mL]	MRSE Combination (MRSE; OD600 at 24-hour, compound 2.5 μM + 1 mg/ml lysozyme)	MRSE Drug only (MRSE; OD600 at 24-hour, compound 2.5 μM without lysozyme)	MRSE Inhibition ratio (%) (MRSE)	MRSE Inhibition ratio (%) (MRSE; listed as Ce ? dinir)	FICI (MRSA [2]; absence of urea-cycle inhibitors)	FICI (MRSA [2]; cultures of both inhibitors)	FICI (MRSA [2]; presence of BB-Cl-Amidine or acetohydroxamic acid)	fractional inhibitory concentration index (FICI) (MRSA [2]; tedizolid phosphate and lysozyme)	tedizolid phosphate hydrolyzed [3]
C=CC1=C(C(=O)O)N2C(=O)[C@@H](NC(=O)/C(=N\O)c3csc(N)n3)[C@H]2SC1 [cefdinir, Cefdinir]	85.21 ± 9.84	< 64	0.0528	0.6206	above 90%	99.68					
Cn1nnc(-c2ccc(-c3ccc(N4C[C@H](COP(=O)(O)O)OC4=O)cc3F)cn2)n1 [tedizolid phosphate, Tedizolid Phosphate]							0.015	up to 0.25	0.1	< 0.023	up to 65%
